≈ marks a conversion by molar mass, not a printed value. Where “and” joins values, the source holds several entries; their conditions need not be identical. Equal values may be shown once. Each block holds one compound with its values, some of them ahead of it.
Experiments:
Assay in all cases: ≥ marks a high value that may be exact or a test limit, other limits are often not marked, values filed in µg/mL are converted to µM
[1] = tested on: Escherichia coli ATCC 25922
Candida krusei ATCC 6258 = tested on: Candida krusei ATCC 6258
[2] = tested on: Enterobacter cloacae ATCC 13047
[3] = tested on: Pseudomonas aeruginosa ATCC 27853
[4] = tested on: Candida glabrata ATCC 90030
[5] = tested on: Candida albicans ATCC 90028
[6] = tested on: Enterococcus faecalis ATCC 4028
[7] = tested on: Staphylococcus aureus ATCC 29213
[8] = tested on: Staphylococcus aureus S015
[9] = tested on: Staphylococcus epidermidis ATCC 12228
[10] = tested on: Staphylococcus aureus ATCC 33591
[11] = tested on: Enterococcus faecalis ATCC 29212
[12] = tested on: Pseudomonas aeruginosa ATCC 13388
[13] = tested on: Salmonella enterica subsp. enterica serovar Typhimurium ATCC 14028
[14] = tested on: Staphylococcus aureus ATCC 6538
[15] = tested on: Escherichia coli ATCC 11219
[16] = tested on: Klebsiella pneumoniae ATCC 10031
Shigella dysenteriae = tested on: Shigella dysenteriae
[17] = tested on: Staphylococcus aureus IS37#
[18] = tested on: Klebsiella pneumoniae IS59#
[19] = tested on: Staphylococcus aureus IS10#
[20] = tested on: Candida albicans ATCC 2002
Escherichia coli IS37# = tested on: Escherichia coli IS37#
[21] = tested on: Candida parapsilosis ATCC 22019
[22] = tested on: Klebsiella pneumoniae ATCC 700603
Escherichia coli IS218# = tested on: Escherichia coli IS218#
[23] = tested on: Pseudomonas aeruginosa IS350#
[24] = tested on: Staphylococcus aureus ATCC 25923
Escherichia coli IS117# = tested on: Escherichia coli IS117#
[25] = tested on: Pseudomonas aeruginosa CMCCB 1010
Alternaria brassicicola = tested on: Alternaria brassicicola
Fusarium culmorum = tested on: Fusarium culmorum
Neurospora crassa = tested on: Neurospora crassa
Escherichia coli D22 = tested on: Escherichia coli D22
Klebsiella pneumoniae = tested on: Klebsiella pneumoniae
Aerococcus viridans = tested on: Aerococcus viridans
Botrytis cinerea = tested on: Botrytis cinerea
Bacillus megaterium = tested on: Bacillus megaterium
Micrococcus luteus = tested on: Micrococcus luteus
Escherichia coli D31 = tested on: Escherichia coli D31
[26] = tested on: Mycobacterium tuberculosis
Candida albicans = tested on: Candida albicans
Streptococcus agalactiae = tested on: Streptococcus agalactiae
Candida glabrata = tested on: Candida glabrata
[27] = tested on: Pseudomonas aeruginosa ATCC 9027
[28] = tested on: Mycobacterium tuberculosis H37Rv
[29] = tested on: Saccharomyces cerevisiae S288C

MIC [1]: > 139 µM | MIC (Candida krusei ATCC 6258): ≥ 69.5 µM | MIC [2]: ≥ 150 µM | MIC [3]: > 150 µM | MIC [4]: ≥ 69.5 µM | MIC [5]: ≥ 34.8 µM | MIC [6]: ≥ 150 µM | MIC [7]: 8.68 µM and 9.37 µM | MIC [8]: ≥ 139 µM | MIC [9]: 9.38 µM and 9.37 µM | MIC [10]: 17.4 µM (≈ 31.2 µg/mL) | MIC [11]: > 139 µM
Structure (SMILES): CC[C@H](C)[C@H](NC(=O)[C@H](CC(C)C)NC(=O)CNC(=O)CNC(=O)[C@@H](NC(=O)[C@H](CC(C)C)NC(=O)[C@H](CO)NC(=O)[C@@H]1CCCN1C(=O)[C@@H](NC(=O)[C@H](CC(C)C)NC(=O)[C@H](CO)NC(=O)[C@H](Cc1ccccc1)NC(=O)[C@@H](N)Cc1ccccc1)[C@@H](C)CC)C(C)C)C(=O)N[C@@H](CO)C(=O)N[C@@H](C)C(=O)N[C@@H](Cc1ccccc1)C(=O)N[C@@H](CCCCN)C(N)=O [FFSLIPSLVGGLISAFK]

MIC [12]: ≥ 50 µM | MIC [13]: > 50 µM | MIC [14]: 30 µM (≈ 38.5 µg/mL) | MIC [15]: ≥ 50 µM | MIC [16]: ≥ 50 µM
Structure (SMILES): CC[C@H](C)[C@H](NC(=O)[C@H](CC(=O)O)NC(=O)[C@H](Cc1cnc[nH]1)NC(=O)[C@H](C)NC(=O)CN)C(=O)N[C@@H](CC(C)C)C(=O)N[C@@H](CCCCN)C(=O)N[C@@H](Cc1ccc(O)cc1)C(=O)NCC(=O)N[C@@H](CCCCN)C(=O)N1CCC[C@H]1C(=O)N[C@@H](CO)C(N)=O [GAHDILKYGKPS]

MIC [1]: 2.52 µM (≈ 5 µg/mL) | MIC [2]: 2.52 µM (≈ 5 µg/mL) | MIC (Shigella dysenteriae): 5.03 µM (≈ 9.99 µg/mL) | MIC [3]: 5.03 µM (≈ 9.99 µg/mL) | MIC [17]: 5.03 µM (≈ 9.99 µg/mL) | MIC [18]: 10.1 µM (≈ 20 µg/mL) | MIC [5]: 1.26 µM (≈ 2.5 µg/mL) | MIC [19]: 2.52 µM (≈ 5 µg/mL) | MIC [20]: 1.01 µM (≈ 2 µg/mL) | MIC (Escherichia coli IS37#): 5.03 µM (≈ 9.99 µg/mL) | MIC [21]: 2.52 µM (≈ 5 µg/mL) | MIC [22]: 0.503 µM (≈ 0.999 µg/mL) | MIC (Escherichia coli IS218#): 10.1 µM (≈ 20 µg/mL) | MIC [23]: 10.1 µM (≈ 20 µg/mL) | MIC [24]: 5.03 µM (≈ 9.99 µg/mL) | MIC (Escherichia coli IS117#): 5.03 µM (≈ 9.99 µg/mL) | MIC [25]: 0.503 µM (≈ 0.999 µg/mL) | MIC [11]: 5.03 µM (≈ 9.99 µg/mL)
Structure (SMILES): CC[C@H](C)[C@H](NC(=O)CNC(=O)[C@H](CO)NC(=O)[C@H](CC(C)C)NC(=O)[C@H](CC(C)C)NC(=O)CN)C(=O)N[C@@H](CC(C)C)C(=O)NCC(=O)N[C@@H](C)C(=O)NCC(=O)N[C@@H](CCCCN)C(=O)N[C@@H](CCCN=C(N)N)C(=O)N[C@H](C(=O)N[C@H](C(=O)N[C@H]1CSSC[C@@H](C(=O)O)NC(=O)[C@H](CC(C)C)NC(=O)CNC(=O)[C@H](CO)NC(=O)[C@H](CC(C)C)NC(=O)CNC1=O)C(C)C)[C@@H](C)CC [GLLSGILGAGKRIVCGLSGLC]

MIC (Alternaria brassicicola): 7.07 µM (≈ 12.3 µg/mL) | MIC (Fusarium culmorum): 28.3 µM (≈ 49.2 µg/mL) | MIC (Neurospora crassa): 28.3 µM (≈ 49.2 µg/mL) | MIC (Escherichia coli D22): 28.3 µM (≈ 49.2 µg/mL) | MIC (Klebsiella pneumoniae): 28.3 µM (≈ 49.2 µg/mL) | MIC (Aerococcus viridans): 1.73 µM (≈ 3.01 µg/mL) | MIC (Botrytis cinerea): 14.1 µM (≈ 24.6 µg/mL) | MIC (Bacillus megaterium): 14.1 µM (≈ 24.6 µg/mL) | MIC (Micrococcus luteus): 7.07 µM (≈ 12.3 µg/mL) | MIC (Escherichia coli D31): 28.3 µM (≈ 49.2 µg/mL)
Structure (SMILES): CC[C@H](C)[C@H](N)C(=O)N[C@H](C(=O)N[C@@H](Cc1ccc(O)cc1)C(=O)N[C@H]1CSSC[C@@H](C(=O)N[C@@H](CCC(N)=O)C(=O)N[C@@H](CCCN=C(N)N)C(=O)N[C@@H](CCSC)C(=O)O)NC(=O)[C@H](CCCCN)NC(=O)CNC(=O)[C@H]([C@@H](C)O)NC(=O)[C@H](CCCN=C(N)N)NC(=O)[C@H](CCCN=C(N)N)NC(=O)[C@H](CC(N)=O)NC1=O)[C@@H](C)CC [IIYCNRRTGKCQRM]

MIC [1]: 24 µM (≈ 49.7 µg/mL) | MIC [26]: 4.8 µM (≈ 9.94 µg/mL) | MIC (Candida albicans): 6.25 µM (≈ 12.9 µg/mL) | MIC (Streptococcus agalactiae): 2.5 µM (≈ 5.18 µg/mL) | MIC (Candida glabrata): ≥ 50 µM | MIC [27]: 2.5 µM (≈ 5.18 µg/mL) | MIC [24]: 2.5 µM (≈ 5.18 µg/mL) | MIC [28]: 17.4 µM (≈ 36 µg/mL)
Structure (SMILES): CC[C@H](C)[C@H](NC(=O)[C@H](CCCCN)NC(=O)[C@H](CCCCN)NC(=O)[C@@H](NC(=O)[C@H](C)NC(=O)[C@H](CO)NC(=O)[C@@H](NC(=O)[C@H](C)NC(=O)[C@H](CO)NC(=O)[C@@H]1CCCN1C(=O)[C@@H](NC(=O)[C@H](CC(C)C)NC(=O)[C@H](CO)NC(=O)[C@H](CC(C)C)NC(=O)[C@H](CC(C)C)NC(=O)[C@H](Cc1ccccc1)NC(=O)[C@H](Cc1ccccc1)NC(=O)[C@@H]1CCCN1C(=O)[C@@H](N)CC(C)C)[C@@H](C)CC)[C@@H](C)CC)[C@@H](C)CC)C(N)=O [LPFFLLSLIPSAISAIKKI]

MIC [29]: ≥ 40 µM
Structure (SMILES): CC(C)C[C@H](NC(=O)[C@H](CC(N)=O)NC(=O)[C@H](Cc1c[nH]c2ccccc12)NC(=O)[C@@H](NC(=O)CNC(=O)CNC(=O)[C@H](CCCN=C(N)N)NC(=O)[C@H](CC(=O)O)NC(=O)[C@H](CC(C)C)NC(=O)[C@H](CCCN=C(N)N)NC(=O)[C@@H](N)CCCN=C(N)N)C(C)C)C(=O)N[C@@H](CC(N)=O)C(=O)N[C@H](C(=O)N[C@@H](CC(N)=O)C(=O)N1CCC[C@H]1C(=O)NCC(=O)N[C@H](C(=O)N[C@H](C(=O)NCC(=O)N[C@@H](C)C(=O)N[C@@H](CCCN=C(N)N)C(=O)N[C@H](C(=O)N[C@@H](Cc1c[nH]c2ccccc12)C(=O)N[C@@H](C)C(=O)N[C@@H](CCCN=C(N)N)C(=O)N[C@H](C(=O)N[C@@H](CCCCN)C(N)=O)[C@@H](C)O)C(C)C)[C@@H](C)O)[C@@H](C)O)C(C)C [RRLDRGGVWNLNVNPGTTGARVWARTK]
